What was measured:
HL60 cells = assay: AsedaSciences SYSTEMETRIC Cell Health Screen (flow cytometry toxicity profiling); conditions: HL60, 4 h, 5 nM–100 µM; for CC: Cell Cycle score / CM: Cell morphology score / CMI: Cell membrane integrity score / GSH: Glutathione score / MMP: Mitochondrial membrane depolarization score / NMI1: Nuclear membrane integrity 1 score / NMI2: Nuclear membrane integrity 2 score / ROS: Reactive superoxide species score: probability 0–1, n = 2; for CHI: Cell Health Index: probability (0–1) of high-risk class, n = 2
Procedure, shortened: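 Risk scores derive from a logistic-regression ML classifier comparing flow-cytometric stress phenotypes with those of 300 reference compounds of known high or low human risk. Phenotypes: light scatter plus fluorescent physiological dyes, twelve parameters, no gating. Compounds tested 5 nM–100 µM (3× steps, duplicate) on HL60 cells, 4 h, 37 °C.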

Aurora-B = Aurora-B (Homo sapiens, UniProt Q96GD4); assay: 33PanQinase activity assay; format: biochemical; conditions: for Residual activity: Aurora-B, singlicate
Aurora-B, sequence (Q96GD4 whole entry): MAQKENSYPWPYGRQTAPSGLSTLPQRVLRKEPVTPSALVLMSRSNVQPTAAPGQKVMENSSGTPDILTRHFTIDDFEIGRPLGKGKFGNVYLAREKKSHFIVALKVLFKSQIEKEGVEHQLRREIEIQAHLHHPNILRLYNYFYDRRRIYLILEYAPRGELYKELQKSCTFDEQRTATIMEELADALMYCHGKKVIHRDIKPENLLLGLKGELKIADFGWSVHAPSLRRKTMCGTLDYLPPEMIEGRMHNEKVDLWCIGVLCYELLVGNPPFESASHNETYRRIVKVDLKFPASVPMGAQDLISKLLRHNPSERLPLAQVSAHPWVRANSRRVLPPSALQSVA
Description: (§1) Table S4. Profiling of two compounds at two concentrations against 320 wild-type protein kinases; singlicate measurement; Residual activities (% of control).

Aurora-C = biological target: T1, Aurora-C (Homo sapiens, UniProt Q9UQB9); assay: 33PanQinase activity assay; format: biochemical; conditions: for Residual activity: Aurora-C, singlicate
T1 sequence (Q9UQB9 1-309): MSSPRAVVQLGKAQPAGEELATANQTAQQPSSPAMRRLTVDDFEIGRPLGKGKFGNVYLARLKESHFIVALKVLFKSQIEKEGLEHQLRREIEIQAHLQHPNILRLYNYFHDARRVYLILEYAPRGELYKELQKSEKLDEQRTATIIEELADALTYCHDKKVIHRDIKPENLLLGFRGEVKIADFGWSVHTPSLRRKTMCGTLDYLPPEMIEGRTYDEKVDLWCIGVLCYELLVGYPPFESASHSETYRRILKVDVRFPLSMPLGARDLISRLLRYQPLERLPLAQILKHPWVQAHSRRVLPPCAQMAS
Description: as §1

MINK1 = MINK1 (Homo sapiens, UniProt Q8N4C8); assay: 33PanQinase activity assay; format: biochemical; conditions: for Residual activity: singlicate
MINK1, sequence (Q8N4C8 whole entry): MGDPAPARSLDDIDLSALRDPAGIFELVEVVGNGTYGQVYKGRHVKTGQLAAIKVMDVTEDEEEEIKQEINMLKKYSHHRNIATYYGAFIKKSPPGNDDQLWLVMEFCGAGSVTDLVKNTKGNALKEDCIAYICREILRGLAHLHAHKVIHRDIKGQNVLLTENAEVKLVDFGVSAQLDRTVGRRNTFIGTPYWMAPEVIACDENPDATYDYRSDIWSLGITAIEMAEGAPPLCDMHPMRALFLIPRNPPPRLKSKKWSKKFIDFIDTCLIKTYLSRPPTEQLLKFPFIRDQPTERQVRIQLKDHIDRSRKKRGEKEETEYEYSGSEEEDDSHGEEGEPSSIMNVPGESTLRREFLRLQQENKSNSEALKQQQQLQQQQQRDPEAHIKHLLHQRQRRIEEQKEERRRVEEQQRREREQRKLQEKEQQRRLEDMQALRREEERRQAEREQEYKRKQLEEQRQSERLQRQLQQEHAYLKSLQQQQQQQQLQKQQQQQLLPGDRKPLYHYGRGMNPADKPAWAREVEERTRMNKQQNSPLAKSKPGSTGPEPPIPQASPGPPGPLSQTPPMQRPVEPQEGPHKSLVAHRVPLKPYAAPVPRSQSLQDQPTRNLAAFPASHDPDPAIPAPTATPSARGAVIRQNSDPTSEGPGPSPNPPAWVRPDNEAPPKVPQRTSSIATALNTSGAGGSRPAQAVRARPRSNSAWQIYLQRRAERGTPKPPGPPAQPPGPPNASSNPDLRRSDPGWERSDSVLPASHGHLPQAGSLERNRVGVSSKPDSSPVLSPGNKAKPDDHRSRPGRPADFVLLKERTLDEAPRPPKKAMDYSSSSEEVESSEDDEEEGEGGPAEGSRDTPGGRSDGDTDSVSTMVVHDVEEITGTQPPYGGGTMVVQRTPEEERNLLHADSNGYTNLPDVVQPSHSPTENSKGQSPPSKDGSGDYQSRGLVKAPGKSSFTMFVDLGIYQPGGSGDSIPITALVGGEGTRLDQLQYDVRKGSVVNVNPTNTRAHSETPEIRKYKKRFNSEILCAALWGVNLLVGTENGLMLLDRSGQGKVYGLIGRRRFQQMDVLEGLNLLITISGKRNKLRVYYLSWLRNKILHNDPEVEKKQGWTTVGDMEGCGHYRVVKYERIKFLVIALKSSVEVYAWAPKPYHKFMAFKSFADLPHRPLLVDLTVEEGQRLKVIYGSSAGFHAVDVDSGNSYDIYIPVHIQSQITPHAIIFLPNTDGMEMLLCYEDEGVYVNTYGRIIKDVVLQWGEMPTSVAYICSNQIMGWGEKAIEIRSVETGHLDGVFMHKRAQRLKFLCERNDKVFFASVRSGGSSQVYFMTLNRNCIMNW
Description: as §1

NIK = NIK (Homo sapiens, UniProt Q99558); assay: 33PanQinase activity assay; format: biochemical; conditions: for Residual activity: NIK, singlicate
NIK, sequence (Q99558 whole entry): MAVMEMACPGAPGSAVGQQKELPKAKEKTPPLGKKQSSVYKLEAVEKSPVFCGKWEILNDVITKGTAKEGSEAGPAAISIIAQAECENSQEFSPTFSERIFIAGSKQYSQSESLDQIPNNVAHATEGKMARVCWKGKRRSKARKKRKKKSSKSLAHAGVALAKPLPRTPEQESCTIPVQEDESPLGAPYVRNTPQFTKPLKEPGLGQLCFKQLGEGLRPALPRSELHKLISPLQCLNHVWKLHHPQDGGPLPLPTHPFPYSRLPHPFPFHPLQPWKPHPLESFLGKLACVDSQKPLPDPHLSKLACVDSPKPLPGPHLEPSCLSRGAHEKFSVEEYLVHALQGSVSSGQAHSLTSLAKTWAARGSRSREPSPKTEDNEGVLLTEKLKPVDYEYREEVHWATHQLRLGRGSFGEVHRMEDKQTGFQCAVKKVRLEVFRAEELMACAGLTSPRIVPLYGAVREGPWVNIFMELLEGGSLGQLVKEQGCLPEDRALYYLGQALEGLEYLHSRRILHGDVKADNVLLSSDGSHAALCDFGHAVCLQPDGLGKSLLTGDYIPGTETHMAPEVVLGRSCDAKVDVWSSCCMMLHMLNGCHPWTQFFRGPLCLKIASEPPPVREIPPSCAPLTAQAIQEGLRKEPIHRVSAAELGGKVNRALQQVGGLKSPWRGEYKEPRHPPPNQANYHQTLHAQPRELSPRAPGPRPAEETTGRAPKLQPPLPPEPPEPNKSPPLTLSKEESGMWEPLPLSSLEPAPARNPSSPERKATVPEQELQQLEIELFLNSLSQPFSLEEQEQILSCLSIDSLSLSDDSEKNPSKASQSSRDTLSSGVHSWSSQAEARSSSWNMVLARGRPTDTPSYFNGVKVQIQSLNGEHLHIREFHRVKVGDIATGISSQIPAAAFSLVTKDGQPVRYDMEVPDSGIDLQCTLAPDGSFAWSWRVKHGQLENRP
Description: as §1

SLK = SLK (Homo sapiens, UniProt Q9H2G2); assay: 33PanQinase activity assay; format: biochemical; conditions: for SLK inhibition: 10 μM; for Residual activity, SLK: kinase SLK, singlicate
SLK, sequence (Q9H2G2 whole entry): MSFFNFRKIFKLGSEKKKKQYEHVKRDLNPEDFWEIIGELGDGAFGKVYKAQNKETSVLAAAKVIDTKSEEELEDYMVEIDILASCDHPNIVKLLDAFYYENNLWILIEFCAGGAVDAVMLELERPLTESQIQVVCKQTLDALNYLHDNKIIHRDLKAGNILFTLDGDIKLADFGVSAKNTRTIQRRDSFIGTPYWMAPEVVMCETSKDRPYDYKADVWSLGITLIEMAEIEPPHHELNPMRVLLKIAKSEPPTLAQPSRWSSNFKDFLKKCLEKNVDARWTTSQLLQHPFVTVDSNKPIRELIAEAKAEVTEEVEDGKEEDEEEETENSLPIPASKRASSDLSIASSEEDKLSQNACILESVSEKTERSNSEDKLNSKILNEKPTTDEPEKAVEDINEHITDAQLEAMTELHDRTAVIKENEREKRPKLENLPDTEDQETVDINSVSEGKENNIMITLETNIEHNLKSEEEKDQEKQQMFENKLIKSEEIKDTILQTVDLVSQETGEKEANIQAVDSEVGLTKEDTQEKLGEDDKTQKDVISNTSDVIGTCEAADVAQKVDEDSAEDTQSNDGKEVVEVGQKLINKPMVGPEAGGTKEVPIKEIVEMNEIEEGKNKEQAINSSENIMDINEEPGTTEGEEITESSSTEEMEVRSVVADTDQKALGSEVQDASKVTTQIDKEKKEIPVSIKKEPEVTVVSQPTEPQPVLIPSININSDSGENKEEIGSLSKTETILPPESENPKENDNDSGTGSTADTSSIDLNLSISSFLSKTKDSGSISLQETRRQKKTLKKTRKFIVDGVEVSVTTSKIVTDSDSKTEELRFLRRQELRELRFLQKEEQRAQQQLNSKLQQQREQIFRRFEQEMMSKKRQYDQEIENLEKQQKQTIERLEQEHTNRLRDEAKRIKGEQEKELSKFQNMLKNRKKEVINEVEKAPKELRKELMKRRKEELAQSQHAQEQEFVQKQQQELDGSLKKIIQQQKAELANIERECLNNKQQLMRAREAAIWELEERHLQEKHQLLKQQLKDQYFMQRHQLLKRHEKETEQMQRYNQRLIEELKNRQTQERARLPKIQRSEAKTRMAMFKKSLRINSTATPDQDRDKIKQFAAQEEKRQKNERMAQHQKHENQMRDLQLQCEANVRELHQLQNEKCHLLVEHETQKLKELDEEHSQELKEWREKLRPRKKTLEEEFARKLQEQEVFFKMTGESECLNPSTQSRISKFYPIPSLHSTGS
Description: as §1

C#Cc1cc(Nc2ncnc3cc(I)ccc23)ccc1Cl [Compound 41] was tested, and the “CC: Cell Cycle score” value (HL60 cells) was 0.91, the “CM: Cell morphology score” value (HL60 cells) was 1.00 and the “CMI: Cell membrane integrity score” value (HL60 cells) was 1.00. The “GSH: Glutathione score” value (HL60 cells) was 0.99, the “MMP: Mitochondrial membrane depolarization score” value (HL60 cells) was 1.00 and the “NMI1: Nuclear membrane integrity 1 score” value (HL60 cells) was 1.00. The “NMI2: Nuclear membrane integrity 2 score” value (HL60 cells) was 1.00, the “ROS: Reactive superoxide species score” value (HL60 cells) was 0.99 and the “CHI: Cell Health Index” value (HL60 cells) was 0.88. For the same compound, the Aurora-B inhibition (Aurora-B; 10 μM) was > 50%, the Residual activity (Aurora-B; 1.0E-06 M) was 30 % of control and the Residual activity (Aurora-B; 1.0E-07 M) was 75 % of control. For the same compound, the Residual activity (Aurora-C; 1.0E-06 M) was 70 % of control, the Residual activity (Aurora-C; 1.0E-07 M) was 89 % of control and the Residual activity (MINK1; MINK1, 1.0E-06 M) was 54 % of control. The Residual activity (MINK1; MINK1, 1.0E-07 M) was 64 % of control, the Residual activity (NIK; 1.0E-06 M) was 120 % of control and the Residual activity (NIK; 1.0E-07 M) was 126 % of control. The SLK inhibition (SLK) was > 50%, the “Residual activity, SLK” value (SLK; assay conc. 1.0E-06 M) was 32 % of control and the “Residual activity, SLK” value (SLK; assay conc. 1.0E-07 M) was 67 % of control.

C#Cc1cc(Nc2ncnc3cc(OC)c(OC)cc23)ccc1Cl [Compound 45] was tested, and the “CC: Cell Cycle score” value (HL60 cells) was 0.10, the “CM: Cell morphology score” value (HL60 cells) was 1.00 and the “CMI: Cell membrane integrity score” value (HL60 cells) was 0.51. For the same compound, the “GSH: Glutathione score” value (HL60 cells) was 0.079, the “MMP: Mitochondrial membrane depolarization score” value (HL60 cells) was 0.48 and the “NMI1: Nuclear membrane integrity 1 score” value (HL60 cells) was 0.60. For the same compound, the “NMI2: Nuclear membrane integrity 2 score” value (HL60 cells) was 0.40, the “ROS: Reactive superoxide species score” value (HL60 cells) was 0.77 and the “CHI: Cell Health Index” value (HL60 cells) was 0.60. The Residual activity (Aurora-B; 1.0E-06 M) was 43 % of control, the Residual activity (Aurora-B; 1.0E-07 M) was 91 % of control and the Aurora-C inhibition (Aurora-C; 10 μM) was > 50%. The Residual activity (Aurora-C; 1.0E-06 M) was 85 % of control, the Residual activity (Aurora-C; 1.0E-07 M) was 98 % of control and the MINK1 inhibition (MINK1; 10 μM) was > 50%. The Residual activity (MINK1; MINK1, 1.0E-06 M) was 29 % of control, the Residual activity (MINK1; MINK1, 1.0E-07 M) was 86 % of control and the NIK inhibition (NIK; 10 μM) was > 50%. The Residual activity (NIK; 1.0E-06 M) was 122 % of control, the Residual activity (NIK; 1.0E-07 M) was 127 % of control and the SLK inhibition (SLK) was > 50%. For the same compound, the “Residual activity, SLK” value (SLK; assay conc. 1.0E-06 M) was 18 % of control and the “Residual activity, SLK” value (SLK; assay conc. 1.0E-07 M) was 76 % of control.

Source: PMC9329436, “Optimization of the 4-anilinoquin(az)oline scaffold as epidermal growth factor receptor (EGFR) inhibitors for chordoma utilizing a toxicology profiling assay platform” (Scientific Reports, 2022)
